From the supplement of paper PMC13380429

Key:
Settings in all cases: 72 h
Caco-2 [1] = experiment: cell viability relative to DMSO; higher = less toxic
Vero E6 [2] = experiment: as above
U2OS [3] = experiment: as above
HepG2 [4] = experiment: as above
Caco-2 [5] = experiment: drug sensitivity score (DSS) for viability; higher = more toxic; extreme values may be limits of the assay
Vero E6 [6] = experiment: as above
U2OS [7] = experiment: as above
HepG2 [8] = experiment: as above
Caco-2 [9] = experiment: relative viability EC50 (midpoint between 100% and the lowest measured viability); higher = less toxic
Vero E6 [10] = experiment: as above
U2OS [11] = experiment: as above
HepG2 [12] = experiment: as above
Calu-3 [13] = experiment: cell viability relative to DMSO; higher = less toxic
Calu-3 [14] = experiment: drug sensitivity score (DSS) for viability; higher = more toxic; extreme values may be limits of the assay
Calu-3 [15] = experiment: relative viability EC50 (midpoint between 100% and the lowest measured viability); higher = less toxic

SMILES | cell viability (Caco-2 [1]; 1 nM) [%] | cell viability (Caco-2 [1]; 10 nM) [%] | cell viability (Caco-2 [1]; 100 nM) [%] | cell viability (Caco-2 [1]; 1000 nM) [%] | cell viability (Caco-2 [1]; 10000 nM) [%] | cell viability (Vero E6 [2]; 1 nM) [%] | cell viability (Vero E6 [2]; 10 nM) [%] | cell viability (Vero E6 [2]; 100 nM) [%] | cell viability (Vero E6 [2]; 1000 nM) [%] | cell viability (Vero E6 [2]; 10000 nM) [%] | cell viability (U2OS [3]; 1 nM) [%] | cell viability (U2OS [3]; 10 nM) [%] | cell viability (U2OS [3]; 100 nM) [%] | cell viability (U2OS [3]; 1000 nM) [%] | cell viability (U2OS [3]; 10000 nM) [%] | cell viability (HepG2 [4]; 1 nM) [%] | cell viability (HepG2 [4]; 10 nM) [%] | cell viability (HepG2 [4]; 100 nM) [%] | cell viability (HepG2 [4]; 1000 nM) [%] | cell viability (HepG2 [4]; 10000 nM) [%] | drug sensitivity score (Caco-2 [5]) | drug sensitivity score (Vero E6 [6]) | drug sensitivity score (U2OS [7]) | drug sensitivity score (HepG2 [8]) | relative viability EC50 (Caco-2 [9]) [µM] | relative viability EC50 (Vero E6 [10]) [µM] | relative viability EC50 (U2OS [11]) [µM] | relative viability EC50 (HepG2 [12]) [nM] | cell viability (Calu-3 [13]; 1 nM) [%] | cell viability (Calu-3 [13]; 10 nM) [%] | cell viability (Calu-3 [13]; 100 nM) [%] | cell viability (Calu-3 [13]; 1000 nM) [%] | cell viability (Calu-3 [13]; 10000 nM) [%] | drug sensitivity score (Calu-3 [14]) | relative viability EC50 (Calu-3 [15]) [µM]
CN1CCN(c2cc(-c3ccccc3)nc(N)n2)CC1 | 92.8 | 99 | 95.1 | 91.8 | 93 | 98.9 | 95.4 | 90.5 | 94.8 | 103 | 96.8 | 98.3 | 97.6 | 98 | 102 | 87.5 | 105 | 87.8 | 95.6 | 116 | 0 | 0 | 0 | 0 | > 10 | > 10 | > 10 | > 10000 | – | – | – | – | – | – | –
COc1ccc2nc3ccc(Cl)cc3c(SCCCN)c2c1 | 94.9 | 99.7 | 93.9 | 93.5 | 99.2 | 99.7 | 93.7 | 93.4 | 93.2 | 109 | 98.8 | 101 | 98.4 | 104 | 98.8 | 98.6 | 106 | 98.8 | 106 | 101 | 0 | 0 | 0 | 0 | > 10 | > 10 | > 10 | > 10000 | – | – | – | – | – | – | –
Cc1ccc2nc(NCCN)c3ncc(C)n3c2c1 | 95.8 | 95.9 | 95.8 | 102 | 66 | 102 | 92.6 | 94.5 | 90.3 | 44 | 95.2 | 96.1 | 94.6 | 98.7 | 28.4 | 111 | 100 | 86.6 | 79.6 | 3.6 | 1.4 | 4.6 | 4.1 | 8.6 | – | 1.86 | 3.04 | 1690 | 91.9 | 93 | 89.4 | 102 | 70.2 | 1.2 | –
OCCCNc1cc(-c2ccnc(Nc3cccc(Cl)c3)n2)ccn1 | 95.9 | 97.1 | 91.6 | 26.1 | 31.8 | 94.5 | 108 | 81.9 | 5.3 | 15.6 | 101 | 95 | 90.9 | 5.8 | 13 | 93.6 | 111 | 93 | 7.7 | 5.6 | 14.9 | 20.1 | 18.5 | 17.9 | 0.223 | 0.178 | 0.237 | 266 | – | – | – | – | – | – | –
N=C(N)NC(=N)Nc1ccccc1 [1-phenylbiguanide] | 96.3 | 94.8 | 95.5 | 92.4 | 98.8 | 100 | 93.4 | 94.8 | 99.4 | 101 | 99.3 | 97.7 | 103 | 101 | 100 | 97.3 | 106 | 103 | 109 | 101 | 0 | 0 | 0 | 0 | > 10 | > 10 | > 10 | > 10000 | – | – | – | – | – | – | –
Brc1c(Br)c(Br)c2[nH]nnc2c1Br [4,5,6,7-tetrabromobenzotriazole] | 93.8 | 107 | 90.4 | 95.7 | 99.2 | 105 | 103 | 101 | 99.4 | 103 | 97.2 | 98 | 97.9 | 100 | 99.2 | 117 | 93.9 | 102 | 93.3 | 107 | 0 | 0 | 0 | 0 | > 10 | > 10 | > 10 | > 10000 | – | – | – | – | – | – | –
O=C(Cc1cccc(OC(F)(F)F)c1)Nc1ccc(CCCCc2nnc(NC(=O)Cc3ccccn3)s2)nn1 [CB-839] | 94.9 | 98.7 | 101 | 105 | 106 | 95.7 | 93.9 | 89.5 | 65.2 | 65.3 | 99.6 | 105 | 92.6 | 75.9 | 82 | 96.7 | 89.2 | 78.1 | 66.1 | 71.4 | 0 | 7.1 | 4.7 | 8.4 | > 10 | – | > 10 | – | 107 | 102 | 89.5 | 89.1 | 86.6 | 1.5 | > 10
COc1cc2c(cc1OC(C)C)[C@H](c1ccc(Cl)cc1)N(c1ccc(N(C)C[C@H]3CC[C@H](N4CCN(C)C(=O)C4)CC3)cc1)C(=O)C2 [CGM097] | 96.6 | 105 | 93.6 | 98.8 | 85.9 | 102 | 105 | 95.1 | 83.3 | 46.9 | 98.1 | 104 | 94.7 | 94.6 | 44.8 | 104 | 109 | 100 | 75.2 | 26.1 | 0.3 | 5 | 3.8 | 7.6 | > 10 | 1.45 | 2.36 | 1310 | – | – | – | – | – | – | –
CC(C)[C@@H]1CC[C@@H](C)C[C@@H]1P(=O)(c1ccccc1)c1ccccc1 [DPO-1] | 100 | 102 | 98.7 | 96.6 | 78 | 112 | 105 | 110 | 96.6 | 105 | 98.5 | 100 | 97.3 | 102 | 93.7 | – | – | – | – | – | 1.2 | 0 | 0 | – | > 10 | > 10 | > 10 | – | 95.9 | 98.4 | 96.7 | 93.7 | 94.1 | 0 | > 10
O=C(CCCCCCCn1cc(-c2cccnc2)nn1)Nc1ccccc1-c1ccccc1 [GPP-78] | 109 | 97.9 | 106 | 4 | 3.6 | 99.2 | 103 | 8.7 | 2.1 | 2.7 | 101 | 99.7 | 110 | 0.2 | 0.1 | 96.6 | 92 | 103 | 25.4 | 18.8 | 16.8 | 28.7 | 17.2 | 13.6 | 0.352 | 0.0395 | 0.365 | 415 | – | – | – | – | – | – | –
COc1ccc(-n2c(SCc3nc(-c4ccc(C)cc4)no3)nnc2-c2ccncc2)cc1 [JW-74] | 111 | 114 | 110 | 100 | 86.9 | 108 | 105 | 107 | 88.7 | 68.2 | 96.4 | 98.3 | 97 | 96 | 81.4 | 99.7 | 101 | 96.2 | 95.3 | 93.3 | 0.1 | 3 | 1 | 0 | > 10 | – | > 10 | > 10000 | 95.1 | 106 | 109 | 107 | 70.8 | 0.9 | –
CCCCCCCC/C=C\CCCCCCCC(=O)NCCc1ccc(O)c(O)c1 [OLDA] | 98.1 | 90.4 | 96.7 | 92 | 61.9 | 106 | 101 | 99 | 99.2 | 61.7 | 101 | 99.1 | 98.3 | 94.6 | 25.9 | 98.1 | 107 | 100 | 103 | 56.3 | 3.2 | 2 | 4.9 | 2 | – | – | 2.58 | – | 105 | 98.6 | 97.9 | 103 | 104 | 0 | > 10
CCCCCOc1ccc(-c2ccc(-c3ccc(C(=O)N[C@H]4C[C@@H](O)[C@@H](O)NC(=O)[C@@H]5[C@@H](O)[C@@H](C)CN5C(=O)[C@H]([C@@H](C)O)NC(=O)[C@H]([C@H](O)[C@@H](O)c5ccc(O)cc5)NC(=O)[C@@H]5C[C@@H](O)CN5C(=O)[C@H]([C@@H](C)O)NC4=O)cc3)cc2)cc1 [anidulafungin] | 110 | 106 | 105 | 105 | 59.2 | 94.8 | 102 | 104 | 101 | 100 | 94.8 | 95.6 | 96.8 | 98.1 | 94 | 97.4 | 104 | 97.6 | 97.1 | 68.7 | 1.7 | 0 | 0 | 1.9 | – | > 10 | > 10 | – | 99.6 | 90.1 | 96.6 | 83.2 | 90.5 | 0.5 | > 10
C[C@@H](O)[C@H]1C(=O)N2C(C(=O)[O-])=C(SC3Cn4cnc[n+]4C3)[C@H](C)[C@H]12 (some centres not stated) [biapenem] | 86.6 | 104 | 96.3 | 93.3 | 97.3 | 98.1 | 100 | 94.7 | 103 | 99.8 | 98.6 | 104 | 96.3 | 97.1 | 100 | 97.1 | 98 | 93.3 | 90.7 | 95.2 | 0 | 0 | 0 | 0 | > 10 | > 10 | > 10 | > 10000 | – | – | – | – | – | – | –
CC(C)CCC[C@@H](C)[C@H]1CC[C@H]2[C@@H]3CC=C4C[C@@H](O)CC[C@]4(C)[C@H]3CC[C@]12C [cholesterol] | 89.4 | 92.1 | 102 | 90.4 | 98.9 | 97.1 | 98.2 | 92.2 | 97.6 | 107 | 102 | 93.3 | 98.2 | 94 | 100 | 92.6 | 97.4 | 91.6 | 106 | 104 | 0 | 0 | 0 | 0 | > 10 | > 10 | > 10 | > 10000 | – | – | – | – | – | – | –
CCCCCCCCCCCCCCCC(=O)O[C@@H]1[C@@H](O)[C@@H](O)[C@@H]([C@H](NC(=O)[C@@H]2C[C@@H](CCC)CN2C)[C@H](C)Cl)O[C@@H]1SC [clindamycin-palmitate] | 95 | 94.7 | 90.2 | 101 | 95.4 | 95.5 | 96.6 | 93.5 | 97 | 103 | 94.2 | 99.7 | 97.7 | 101 | 106 | – | – | – | – | – | 0 | 0 | 0 | – | > 10 | > 10 | > 10 | – | 99.9 | 102 | 103 | 96.7 | 104 | 0 | > 10
